Measurements taken from patent US11020414B2, “Antimicrobial compositions with cysteamine” (priority 2010, dated 2021).
≈ marks a conversion by molar mass, not a printed value. Where “and” joins values, the source holds several entries; their conditions need not be identical. Identical values can stand only once. Like-named read-outs stand apart in the source and are kept apart here.

Columns and labels:
[1] = system: Pseudomonas aeruginosa Pa01; assay: FIC index of combinations with conventional antibiotics, strain Pa01; assay type: cell-based; details: strain Pa01 (Col^R), listed as Cysteamine (NM001)
Protocol: (§1) The bacterial inoculum was established by the dilution method from actively-growing cultures in Mueller-Hinton (MH) broth, standardized with 0.5 McFarland turbidity standard as described in the CLSI method M26-A.
(§2) Both the bacterial inoculum and the antimicrobial agents, including the compounds structurally related to cysteamine, were added simultaneously to the plates. The plates were incubated at 37° C. for 24 h and the optical density was read at 625 nm on a microtitre plate reader (BioTek Powerwave XS, Winooski, USA). The MIC was obtained as the lowest concentration of antimicrobial showing total inhibition of bacterial growth.
(§3) The FIC corresponds to an interaction coefficient indicating whether the combination of antimicrobial agents is synergistic, additive, antagonist or neutral. The FIC is determined by comparing the activity of an agent in combination (MIC of agent A+agent B) with the activity of the agent alone (MIC of agent A or agent B) as follow (Singh et al., 2000): FIC=MICA[combination]/MICA[alone]+MICB[combination]/MICB[alone]
(§4) Additive combinations of two antimicrobial agents are indicated by a FIC index of 1, whereas a FIC index<1 indicates synergistic combinations. Neutral combinations would give a FIC between 1 and 4, a FIC index higher than 4 indicates antagonist effects between the two antimicrobial agents.
(§5) The FIC was also calculated to assess the interaction of two antimicrobial agents in combination against bacterial samples.

[2] = system: Pseudomonas aeruginosa Pa058; assay: FIC index of combinations with conventional antibiotics, strain Pa058; assay type: cell-based; details: strain Pa058 (Col^R, Cip^R Tob^R), listed as Cysteamine (NM001)
Protocol: as §1, §2, §3, §4, §5

[3] = system: Pseudomonas aeruginosa Pa01; assay: MIC determination, strain Pa01; assay type: cell-based
Protocol: as §1
Both the bacterial inoculum and the antimicrobial agents, including the compounds structurally related to cysteamine, were added simultaneously to the plates. The plates were incubated at 37° C. for 24 h and the optical density was read at 625 nm on a microtitre plate reader (BioTek Powerwave XS, Winooski, USA). […]
A number of compounds related in chemical structure to cysteamine were examined for antimicrobial activity; cystamine (dihydrochloride salt), taurine and 2,3-dimercaptosuccinic acid. Other compounds chemically related to cysteamine are known, but are toxic, and are therefore of no utility in a drug of this nature.

[4] = system: Burkholderia cepacia NCTC10743; assay: MIC100 and FIC of cysteamine and tobramycin, MH broth (CLSI) and artificial sputum medium; assay type: cell-based
Protocol: as §2, §3
(§6) The complex pathophysiology of CF is characterized by airway obstruction caused by abnormal mucus secretion and infection, with 60-80% of patients being chronically infected with the biofilm-forming bacteria Pseudomonas aeruginosa (George et al., 2009). With a prevalence of up to 10% in adult CF patients, B. cepacia complex is a rare but major concern due to its high virulence, morbidity and transmissibility (O'Malley, 2009; Brüssow, 2012). We tested the antimicrobial activity of cysteamine-tobramycin combinations in artificial sputum medium (Yang, et al., 2011) against 4 P. aeruginosa (PAO1, ATCC27853, DSMZ1128 and DSMZ1299) and 2 B. cepacia complex strains (NCTC10743 and NCTC10744).

[5] = system: Burkholderia cepacia NCTC10744; assay: as above; assay type: cell-based; details: read-out: MIC100, agent alone
Protocol: as §2, §3, §6

[6] = system: P. aeruginosa PAO1 biofilm; assay: Minimum biofilm eradication concentration against established biofilm (FIG. 4); assay type: cell-based, Pseudomonas aeruginosa
[7] = system: 4 P. aeruginosa (PAO1, ATCC27853, DSMZ1128 and DSMZ1299) and 2 B. cepacia complex strains (NCTC10743 and NCTC10744); assay: microbe, parasite or virus in culture; assay type: cell-based, Pseudomonas aeruginosa; Burkholderia cepacia complex; details: Pseudomonas aeruginosa, read-out: MIC100
Text: as §6

Compound: NCCS [Cysteamine, cysteamine]
- FICI (Additive) Col ([1]; in combination with Colistin): 0.53 and 0.56
- FICI (Synergy) Col ([1]; in combination with Colistin): 0.38 and 0.31 and 0.25
- FICI (Additive) Gent ([1]; in combination with Gentamicin): 0.5 and 0.53 and 0.63
- FICI (Synergy) Gent ([1]; in combination with Gentamicin): 0.38
- FICI (Additive) Tob ([1]; in combination with Tobramycin): 0.63
- FICI (Synergy) Tob ([1]; in combination with Tobramycin): 0.31 and 0.28 and 0.25
- FICI (Additive) Cip ([2]; in combination with Ciprofloxacin): 0.53 and 0.56
- FICI (Additive) Col ([2]; in combination with Colistin): 0.75 and 0.53 and 0.56 and 0.5
- FICI (Additive) Gent ([2]; in combination with Gentamicin): 0.56 and 0.5 and 0.75
- FICI (Additive) Tob ([2]; in combination with Tobramycin): 0.52 and 0.56 and 0.5 and 0.53 and 0.63 and 0.75
- MIC50 [3]: 250 to 500 µg/mL (≈ 3.24 to 6.48 mM)
- MIC90 [3]: 500 µg/mL (≈ 6.48 mM)
- MIC ([3]; read-out: MIC100): 667 µg/mL (≈ 8.64 mM)
- MIC ([4]; NCTC10743, B. cepacia NCTC10743, FIG. 6, read-out: MIC100, agent alone): 500 µg/mL
- MIC ([4]; NCTC10743, B. cepacia NCTC10743, in both media (MH broth and ASM), FIG. 11, read-out: MIC100, agent alone): 500 µg/mL
- MIC ([4]; NCTC10743, B. cepacia NH10743, ASM (Artificial Sputum Medium), read-out: MIC100, agent alone): 500 µg/mL
- MIC ([4]; NCTC10743, B. cepacia NH10743, CLSI, read-out: MIC100, agent alone): 250 µg/mL
- MIC ([5]; NCTC10744, B. cepacia NH10744, ASM (Artificial Sputum Medium)): 500 µg/mL
- MIC ([5]; NCTC10744, B. cepacia NH10744, CLSI): 250 µg/mL
- minimum biofilm eradication concentration (MBEC), agent alone [6]: 1000 µg/mL
- MIC [7]: 250 to 500 µg/mL
